The target of assay [1] is T1, Bromodomain and PHD finger-containing protein 3 (Homo sapiens, UniProt Q9ULD4).
T1 sequence (Q9ULD4 whole entry): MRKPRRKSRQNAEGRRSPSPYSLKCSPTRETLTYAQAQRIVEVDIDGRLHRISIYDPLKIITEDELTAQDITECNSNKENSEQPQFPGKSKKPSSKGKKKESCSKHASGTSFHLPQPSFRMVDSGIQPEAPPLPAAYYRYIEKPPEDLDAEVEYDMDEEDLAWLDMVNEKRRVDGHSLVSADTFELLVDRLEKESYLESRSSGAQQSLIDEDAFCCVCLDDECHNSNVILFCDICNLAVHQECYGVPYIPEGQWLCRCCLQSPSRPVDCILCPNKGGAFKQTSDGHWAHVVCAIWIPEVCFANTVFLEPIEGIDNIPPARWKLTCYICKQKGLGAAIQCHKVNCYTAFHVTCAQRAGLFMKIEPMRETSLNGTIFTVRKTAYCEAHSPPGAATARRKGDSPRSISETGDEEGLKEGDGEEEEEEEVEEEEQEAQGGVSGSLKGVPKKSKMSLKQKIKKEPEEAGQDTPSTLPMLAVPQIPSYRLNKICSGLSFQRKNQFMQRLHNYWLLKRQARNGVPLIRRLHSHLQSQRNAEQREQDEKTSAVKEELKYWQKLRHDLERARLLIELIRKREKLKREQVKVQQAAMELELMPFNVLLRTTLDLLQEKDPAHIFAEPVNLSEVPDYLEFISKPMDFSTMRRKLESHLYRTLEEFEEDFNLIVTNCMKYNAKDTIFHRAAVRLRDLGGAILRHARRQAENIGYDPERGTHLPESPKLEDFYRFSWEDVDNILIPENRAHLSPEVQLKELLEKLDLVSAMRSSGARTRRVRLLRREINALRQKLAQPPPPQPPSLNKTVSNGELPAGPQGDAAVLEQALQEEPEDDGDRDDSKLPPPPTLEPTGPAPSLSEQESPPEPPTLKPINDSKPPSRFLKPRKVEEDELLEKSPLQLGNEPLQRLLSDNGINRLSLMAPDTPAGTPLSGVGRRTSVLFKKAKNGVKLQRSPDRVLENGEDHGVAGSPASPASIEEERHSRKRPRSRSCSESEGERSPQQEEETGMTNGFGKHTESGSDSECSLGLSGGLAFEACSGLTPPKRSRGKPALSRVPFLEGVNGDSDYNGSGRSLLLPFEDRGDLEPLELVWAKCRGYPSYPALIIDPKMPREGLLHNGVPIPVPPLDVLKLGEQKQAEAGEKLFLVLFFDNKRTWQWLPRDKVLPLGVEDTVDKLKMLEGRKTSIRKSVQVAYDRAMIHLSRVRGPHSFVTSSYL
Nature of the assay: Inhibition of human BRPF3 (588 to 701 residues) expressed in Escherichia coli BL21 after 1 hr by BROMOscan assay.

The target of assay [2] is T2, Peregrin (Homo sapiens) (UniProt P55201).
T2 sequence (whole entry): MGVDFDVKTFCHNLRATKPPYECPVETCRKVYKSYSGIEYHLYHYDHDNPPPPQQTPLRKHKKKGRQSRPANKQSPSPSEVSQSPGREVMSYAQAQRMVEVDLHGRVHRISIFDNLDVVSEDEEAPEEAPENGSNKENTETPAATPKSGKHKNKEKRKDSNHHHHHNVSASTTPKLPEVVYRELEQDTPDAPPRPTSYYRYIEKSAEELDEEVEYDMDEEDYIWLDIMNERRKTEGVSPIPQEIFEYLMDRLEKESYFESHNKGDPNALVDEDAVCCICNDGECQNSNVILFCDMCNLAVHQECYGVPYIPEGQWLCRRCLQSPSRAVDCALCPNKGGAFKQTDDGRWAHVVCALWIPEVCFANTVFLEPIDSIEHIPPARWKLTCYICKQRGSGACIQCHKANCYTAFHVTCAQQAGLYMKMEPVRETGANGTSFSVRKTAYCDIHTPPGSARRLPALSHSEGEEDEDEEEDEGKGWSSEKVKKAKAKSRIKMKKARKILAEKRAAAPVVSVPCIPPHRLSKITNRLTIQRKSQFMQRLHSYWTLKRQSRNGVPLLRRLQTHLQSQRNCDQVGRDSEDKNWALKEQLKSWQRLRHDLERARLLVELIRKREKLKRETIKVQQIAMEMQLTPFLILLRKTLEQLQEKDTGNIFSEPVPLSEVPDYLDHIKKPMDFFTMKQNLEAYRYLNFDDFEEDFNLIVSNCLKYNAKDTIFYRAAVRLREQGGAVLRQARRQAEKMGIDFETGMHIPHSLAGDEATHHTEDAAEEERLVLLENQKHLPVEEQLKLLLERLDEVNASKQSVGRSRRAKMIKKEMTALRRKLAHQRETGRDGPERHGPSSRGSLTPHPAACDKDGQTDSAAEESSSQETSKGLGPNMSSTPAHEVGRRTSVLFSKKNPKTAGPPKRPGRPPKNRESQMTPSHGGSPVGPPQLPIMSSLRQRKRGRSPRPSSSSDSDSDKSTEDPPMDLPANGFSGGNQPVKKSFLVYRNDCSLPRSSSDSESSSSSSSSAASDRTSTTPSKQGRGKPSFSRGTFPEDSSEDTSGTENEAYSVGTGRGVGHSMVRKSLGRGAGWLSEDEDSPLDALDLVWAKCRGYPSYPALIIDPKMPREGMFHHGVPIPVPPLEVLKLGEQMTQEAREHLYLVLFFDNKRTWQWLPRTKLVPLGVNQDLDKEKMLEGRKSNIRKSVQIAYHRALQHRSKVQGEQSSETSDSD
Description: Binding affinity to BRPF1 (unknown origin) assessed as change in melting temperature at 10 uM by differential scanning fluorimetry based thermal shift assay

In assay [3] the target is Bromodomain-containing protein 4 (Homo sapiens, UniProt O60885). Put plainly: Inhibition of human BRD4 isoform long bromodomain 1 (44 to 168 residues) expressed in Escherichia coli BL21 after 1 hr by BROMOscan assay.

For `COc1cc(C#N)ccc1S(=O)(=O)Nc1ccc2c(c1)cc(C(C)C)c(=O)n2C`, the IC50 (usually the point on the concentration scale where inhibition reaches its midpoint) in assay [1] was found to be 4.6 µM. This counts as single-digit micromolar.
Regarding `Cn1c(=O)ccc2cc(S(=O)(=O)Nc3ccccc3)ccc21`, the ΔTm (in general, the change in melting temperature against a reference sample) in assay [2] turned out to be 3.5 °C. Further, the IC50 is > 100 µM in assay [1] and 37 µM in assay [3].
Take `COc1cc(C#N)ccc1S(=O)(=O)Nc1ccc2c(c1)cc(C)c(=O)n2C`: the ΔTm in assay [2] is 12.3 °C. For the same compound, in assay [3], the IC50 is 3.7 µM.
